The text below walks through data of patent US11155586B2, “Cystine knot scaffold platform” (Genentech, Inc., priority 2015, dated 2021).

Positions of bridges follow the written chain, without caps; N, C: chain ends. Non-standard residues stand in square brackets, D forms with d. Residues, ends and D or L forms follow the SMILES beside them. 2Nal = N[C@@H](Cc1ccc2ccccc2c1)C(=O)O

The target of the first assay is T1, hVEGF-A (Homo sapiens, UniProt P15692).
T1 sequence (P15692 207-395): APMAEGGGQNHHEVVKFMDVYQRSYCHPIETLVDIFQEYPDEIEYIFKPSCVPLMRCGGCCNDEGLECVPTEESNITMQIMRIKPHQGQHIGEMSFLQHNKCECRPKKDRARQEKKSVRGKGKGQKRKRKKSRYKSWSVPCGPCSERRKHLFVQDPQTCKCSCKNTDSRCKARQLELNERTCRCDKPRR
The experiment in a line: KDR-CHO VEGF assay to determine cellular IC50 (VEGF mediated Tyr phosphorylation of KDR). Type of assay: cell-based. The following applies: Table 36, from cellular IC50. The procedure: KDR-CHO cells (CHO cells stably transfected with gD tagged-KDR) were grown in cell growth medium (DMEM/Ham's F-12, 10% diafiltered FBS (GIBCO catalog no. 26400), 25 mM HEPES, 2 mM L-GLUTAMAX™). For VEGF stimulation assay, 5×10^4 cells/well were plated in 100 μl of cell plating medium (DMEM/Ham's F-12, 0.2% BSA, 0.25% diafiltered FBS, 25 mM HEPES, 2 mM L-GLUTAMAX™) in 96-well tissue culture plate and incubated at 37° C. overnight. The medium was replaced with 100 I1 of serum-free cell stimulation medium (DMEM/Ham's F-12, 0.5% BSA, 25 mM HEPES) and cells were incubated at 37° C. for 2 hr. One hour before stimulation, the medium was replaced with 50 I1 of serum-free cell stimulation medium. Concurrently, VEGF (50 ng/ml for hVEGF, 100 ng/ml for mVEGF and rVEGF) was pre-incubated with titrated amount of CKP or anti-VEGF in 50 μl of serum-free cell stimulation medium at 37° C. for 1 hour and added to the cells. The cells were stimulated for 15 min at 37 C and the medium is removed. The cells were lysed with 130 I1 of ice-cold cell lysis buffer (150 mM NaCl, 50 mM HEPES, 0.5% Triton-X 100, HALT protease and phosphatase inhibitor cocktail (ThermoFisher Scientific, Inc. catalog no. 78444), 5 mM EDTA). VEGF mediated Tyr phosphorylation of KDR was determined by ELISA-based assay. Briefly, MAXISORP™ 96 well plates (ThermoFisher Scientific, Inc. catalog no. 439454) were coated with 100 I1 of anti-gD antibody diluted in PBS (1 μg/ml) at 4° C. overnight and washed three times with washing buffer (PBS, 0.05% TWEEN®20, pH 7.4). The plates were blocked with 300 I1 of blocking buffer (PBS, 0.5% BSA) at room temperature for 1 hour followed by washing three times with washing buffer. The above KDR-CHO cell lysate (100 μl) was added to each well and incubated at room temperature for 2 hours. The plates were washed four times with washing buffer followed by incubation with 100 I1 of 0.5 μg/ml biotin-conjugated anti-phosphotyrosine (clone 4G10, Millipore catalog no. 16-103) in blocking buffer at room temperature for 2 hours. After washing four times, the plates were incubated with 100 I1 of HRP-conjugated streptavidin in blocking buffer at room temperature for 30 min. After washing four times, the plates were developed with 100 I1 of TMB substrate (BD Biosciences) at room temperature for 20-30 min and stopped by addition of 50 μl of H2SO4 solution. The optical density of each well was determined using a microplate reader set to 450 nm.
As for `CC[C@H](C)[C@H](NC(=O)[C@@H]1CSSC[C@H](NC(=O)CN)C(=O)N[C@@H](CC(N)=O)C(=O)N[C@@H]([C@@H](C)CC)C(=O)N[C@@H](CCSC)C(=O)N[C@@H](CC(C)C)C(=O)N2CCC[C@H]2C(=O)N[C@@H](Cc2ccccc2)C(=O)N[C@@H](Cc2c[nH]c3ccccc23)C(=O)NCC(=O)N[C@H]2CSSC[C@H](NC(=O)[C@H](CCC(=O)O)NC(=O)[C@H](Cc3ccccc3)NC(=O)[C@H](CC(=O)O)NC(=O)[C@H](CCCNC(=N)N)NC(=O)CNC2=O)C(=O)N[C@@H](CCSC)C(=O)N[C@@H](CCC(=O)O)C(=O)N[C@@H](CCC(N)=O)C(=O)N1)C(=O)N[C@H]1CSSC[C@@H](C(=O)NCC(=O)O)NC(=O)[C@H](CO)NC(=O)[C@H](CCC(N)=O)NC(=O)[C@H](Cc2ccc(O)cc2)NC(=O)[C@H](Cc2ccc(O)cc2)NC(=O)[C@H](CCC(N)=O)NC1=O` [9.54.90.67] (H-GCNIMLPFWGCGRDFECMEQCICQYYQSCG-OH; disulfide 2-21, 11-17, 23-29; N-terminus and C-terminus assumed), the “FOLD IMPROVEMENT RELATIVE TO VARIANT 9.54.90” value was determined as 1.23.

As for `CC[C@H](C)[C@H](NC(=O)[C@@H]1CSSC[C@H](NC(=O)CN)C(=O)N[C@@H](CC(N)=O)C(=O)N[C@@H]([C@@H](C)CC)C(=O)N[C@@H](CCSC)C(=O)N[C@@H](CC(C)C)C(=O)N2CCC[C@H]2C(=O)N[C@@H](Cc2ccccc2)C(=O)N[C@@H](Cc2c[nH]c3ccccc23)C(=O)NCC(=O)N[C@H]2CSSC[C@H](NC(=O)[C@H](CCC(=O)O)NC(=O)[C@H](Cc3ccccc3)NC(=O)[C@H](CC(=O)O)NC(=O)[C@H](CCCNC(=N)N)NC(=O)CNC2=O)C(=O)N[C@@H](CCSC)C(=O)N[C@@H](CCC(N)=O)C(=O)N[C@@H]([C@@H](C)O)C(=O)N1)C(=O)N[C@H]1CSSC[C@@H](C(=O)NCC(=O)O)NC(=O)[C@H](CO)NC(=O)[C@H](CCC(N)=O)NC(=O)[C@H](Cc2ccc(O)cc2)NC(=O)[C@H](Cc2ccc(O)cc2)NC(=O)[C@H](CCC(N)=O)NC1=O` [9.54.90.25] (H-GCNIMLPFWGCGRDFECMQTCICQYYQSCG-OH; disulfide 2-21, 11-17, 23-29; N-terminus and C-terminus assumed), the “FOLD IMPROVEMENT RELATIVE TO VARIANT 9.54.90” value is 1.07.

Still in this assay, the particulars now being: Table 38.
As to “CNIMLPYWGCGRDFECLAGCVCQYYQSC [VEGF_CKP9.54.90 F7Y A2G]”, the “cellular potency relative to VEGF_CKP9.54.90” value is reported as “slight reduction of cellular potency”.

The same assay, now with this note: Table 38, from cellular IC50.
As for `CC[C@H](C)[C@H](NC(=O)[C@@H]1CSSC[C@H](NC(=O)CN)C(=O)N[C@@H](CC(N)=O)C(=O)N[C@@H]([C@@H](C)CC)C(=O)N[C@@H](CCSC)C(=O)N[C@@H](CC(C)C)C(=O)N2CCC[C@H]2C(=O)N[C@@H](Cc2ccccc2)C(=O)N[C@@H](Cc2c[nH]c3ccccc23)C(=O)NCC(=O)N[C@H]2CSSC[C@H](NC(=O)[C@H](CCC(=O)O)NC(=O)[C@H](Cc3ccccc3)NC(=O)[C@H](CC(=O)O)NC(=O)[C@H](CCCNC(=N)N)NC(=O)CNC2=O)C(=O)N[C@@H](CCSC)C(=O)N[C@@H](CCC(=O)O)C(=O)N[C@@H](CCC(N)=O)C(=O)N1)C(=O)N[C@H]1CSSC[C@@H](C(=O)NCC(=O)O)NC(=O)[C@H](CO)NC(=O)[C@H](CCC(N)=O)NC(=O)[C@H](Cc2ccc(O)cc2)NC(=O)[C@H](Cc2ccc(O)cc2)NC(=O)[C@H](CCC(N)=O)NC1=O` [9.54.90.67] (H-GCNIMLPFWGCGRDFECMEQCICQYYQSCG-OH; disulfide 2-21, 11-17, 23-29; N-terminus and C-terminus assumed), the “FOLD IMPROVEMENT RELATIVE TO VARIANT 9.54.90” value is recorded as 1.23.

With `CC[C@H](C)[C@@H]1NC(=O)[C@H](CC(N)=O)NC(=O)[C@@H](N)CSSC[C@@H](C(=O)N[C@H](C(=O)N[C@H]2CSSC[C@@H](C(=O)O)NC(=O)[C@H](CO)NC(=O)[C@H](CCC(N)=O)NC(=O)[C@H](Cc3ccc(O)cc3)NC(=O)[C@H](Cc3ccc(O)cc3)NC(=O)[C@H](CCC(N)=O)NC2=O)C(C)C)NC(=O)CNC(=O)[C@H](C)NC(=O)[C@H](CC(C)C)NC(=O)[C@@H]2CSSC[C@H](NC(=O)CNC(=O)[C@H](Cc3c[nH]c4ccccc34)NC(=O)[C@H](Cc3ccc(O)cc3)NC(=O)[C@@H]3CCCN3C(=O)[C@H](CC(C)C)NC(=O)[C@H](CCSC)NC1=O)C(=O)NCC(=O)N[C@@H](CCCNC(=N)N)C(=O)N[C@@H](CC(=O)O)C(=O)N[C@@H](Cc1ccccc1)C(=O)N[C@@H](CCC(=O)O)C(=O)N2` [9.54.90.F7Y.Δ2G] (H-CNIMLPYWGCGRDFECLAGCVCQYYQSC-OH; disulfide 1-20, 10-16, 22-28; N-terminus and C-terminus assumed), the “FOLD IMPROVEMENT RELATIVE TO VARIANT 9.54.90” value turned out to be 0.44.

On to `CC[C@H](C)[C@@H]1NC(=O)[C@H](CC(N)=O)NC(=O)[C@@H](NC(=O)CN)CSSC[C@@H](C(=O)N[C@H](C(=O)N[C@H]2CSSC[C@@H](C(=O)NCC(=O)O)NC(=O)[C@H](CO)NC(=O)[C@H](CCC(N)=O)NC(=O)[C@H](Cc3ccc(O)cc3)NC(=O)[C@H](Cc3ccc(O)cc3)NC(=O)[C@H](CCC(N)=O)NC2=O)C(C)C)NC(=O)CNC(=O)[C@H](C)NC(=O)[C@H](CC(C)C)NC(=O)[C@@H]2CSSC[C@H](NC(=O)CNC(=O)[C@H](Cc3c[nH]c4ccccc34)NC(=O)[C@H](Cc3ccc(O)cc3)NC(=O)[C@@H]3CCCN3C(=O)[C@H](CC(C)C)NC(=O)[C@H](CCSC)NC1=O)C(=O)NCC(=O)N[C@@H](CCCNC(=N)N)C(=O)N[C@@H](CC(=O)O)C(=O)N[C@@H](Cc1ccccc1)C(=O)N[C@@H](CCC(=O)O)C(=O)N2` [9.54.90.F8Y] (H-GCNIMLPYWGCGRDFECLAGCVCQYYQSCG-OH; disulfide 2-21, 11-17, 23-29; N-terminus and C-terminus assumed), for which the “FOLD IMPROVEMENT RELATIVE TO VARIANT 9.54.90” value came to 0.85.

In the case of `CC[C@H](C)[C@H](NC(=O)[C@@H]1CSSC[C@H](NC(=O)CN)C(=O)N[C@@H](CC(N)=O)C(=O)N[C@@H]([C@@H](C)CC)C(=O)N[C@@H](CCSC)C(=O)N[C@@H](CC(C)C)C(=O)N2CCC[C@H]2C(=O)N[C@@H](Cc2ccc(O)cc2)C(=O)N[C@@H](Cc2c[nH]c3ccccc23)C(=O)NCC(=O)N[C@H]2CSSC[C@H](NC(=O)[C@H](CCC(=O)O)NC(=O)[C@H](Cc3ccccc3)NC(=O)[C@H](CC(=O)O)NC(=O)[C@H](CCCNC(=N)N)NC(=O)CNC2=O)C(=O)N[C@@H](CCSC)C(=O)N[C@@H](CC(N)=O)C(=O)N[C@@H](CCC(N)=O)C(=O)N1)C(=O)N[C@H]1CSSC[C@@H](C(=O)NCC(=O)O)NC(=O)[C@H](CO)NC(=O)[C@H](CCC(N)=O)NC(=O)[C@H](Cc2ccc(O)cc2)NC(=O)[C@H](Cc2ccc(O)cc2)NC(=O)[C@H](CCC(N)=O)NC1=O` [9.54.90.13.F8Y] (H-GCNIMLPYWGCGRDFECMNQCICQYYQSCG-OH; disulfide 2-21, 11-17, 23-29; N-terminus and C-terminus assumed), the “FOLD IMPROVEMENT RELATIVE TO VARIANT 9.54.90” value came out at 0.67.

For the molecule `CC[C@H](C)[C@H](NC(=O)[C@@H]1CSSC[C@H](NC(=O)CN)C(=O)N[C@@H](CC(N)=O)C(=O)N[C@@H]([C@@H](C)CC)C(=O)N[C@@H](CCSC)C(=O)N[C@@H](CC(C)C)C(=O)N2CCC[C@H]2C(=O)N[C@@H](Cc2ccc(O)cc2)C(=O)N[C@@H](Cc2c[nH]c3ccccc23)C(=O)NCC(=O)N[C@H]2CSSC[C@H](NC(=O)[C@H](CCC(=O)O)NC(=O)[C@H](Cc3ccccc3)NC(=O)[C@H](CC(=O)O)NC(=O)[C@H](CCCNC(=N)N)NC(=O)CNC2=O)C(=O)N[C@@H](Cc2ccccc2)C(=O)N[C@@H](Cc2ccc(O)cc2)C(=O)N[C@@H](CCC(=O)O)C(=O)N1)C(=O)N[C@H]1CSSC[C@@H](C(=O)NCC(=O)O)NC(=O)[C@H](CO)NC(=O)[C@H](CCC(N)=O)NC(=O)[C@H](Cc2ccc(O)cc2)NC(=O)[C@H](Cc2ccc(O)cc2)NC(=O)[C@H](CCC(N)=O)NC1=O` [9.54.90.62.F8Y] (H-GCNIMLPYWGCGRDFECFYECICQYYQSCG-OH; disulfide 2-21, 11-17, 23-29; N-terminus and C-terminus assumed), the “FOLD IMPROVEMENT RELATIVE TO VARIANT 9.54.90” value is listed as 1.18.

For the molecule `CC[C@H](C)[C@@H]1NC(=O)[C@H](CC(N)=O)NC(=O)[C@@H](NC(=O)CN)CSSC[C@@H](C(=O)N[C@H](C(=O)N[C@H]2CSSC[C@@H](C(=O)NCC(=O)O)NC(=O)[C@H](CO)NC(=O)[C@H](CCC(N)=O)NC(=O)[C@H](Cc3ccc(O)cc3)NC(=O)[C@H](Cc3ccc(O)cc3)NC(=O)[C@H](CCC(N)=O)NC2=O)C(C)C)NC(=O)CNC(=O)[C@H](C)NC(=O)[C@H](CC(C)C)NC(=O)[C@@H]2CSSC[C@H](NC(=O)CNC(=O)[C@H](Cc3ccc4ccccc4c3)NC(=O)[C@H](Cc3ccccc3)NC(=O)[C@@H]3CCCN3C(=O)[C@H](CC(C)C)NC(=O)[C@H](CCSC)NC1=O)C(=O)NCC(=O)N[C@@H](CCCNC(=N)N)C(=O)N[C@@H](CC(=O)O)C(=O)N[C@@H](Cc1ccccc1)C(=O)N[C@@H](CCC(=O)O)C(=O)N2` [9.54.90.Naph2] (H-GCNIMLPF[2Nal]GCGRDFECLAGCVCQYYQSCG-OH; disulfide 2-21, 11-17, 23-29; N-terminus and C-terminus assumed), the “FOLD IMPROVEMENT RELATIVE TO VARIANT 9.54.90” value was 0.08.
